In patent US11154529B2, “Phosphaplatin liquid formulations” (Phosplatin Therapeutics Inc., priority 2016, dated 2021):

Experiment: Ready-to-use formulation stability at 25° C./60% RH, 5 mg/mL (R,R)-pyrodach-2 in 10 mM Sodium Phosphate Buffer, 5.2 mM Sodium Pyrophosphate at pH 7.5, 10 mL vials
Assay type: physicochemical
Procedure: Stability data on the formulation with added pyrophosphate at 40° C./75% RH in Table 12 is even more dramatic. […] [table] [table] • Transfer 1419.6 mg±14.0 mg of dibasic sodium phosphate anhydrous to a 1-L volumetric flask. • Transfer 2298.5 mg±23.0 mg of tetrasodium pyrophosphate decahydrate into the same 1-L volumetric flask. • Fill flask to approximately 75% volume with sterile water for injection, swirl as needed to dissolve all solids. • Volumetrically transfer 8.0 mL of 1N NaOH to flask. • Dilute flask to volume with water and mix well. • Record the pH of final solution. This is the vehicle. • Determine the tare weight of a 500-mL compounding vessel with stir bar. • Transfer 2500.1 mg±25.0 mg of (R,R)-pyrodach-2 to the vessel. • Transfer 450.0 g±0.1 g of the vehicle to the vessel and stir to dissolve solids. • Determine the initial pH of the solution. • Slowly adjust the pH of the solution to 7.5±0.1 by adding additional N NaOH. • Determine the gross solution weight and dilute the solution weight to 500.0 g±0.1 g by adding additional vehicle into the compounding vessel. Density=1.00 g/mL. • Stir the final solution for an additional 5 minutes. • Determine the pH of final solution. • Pass the entire solution through a 0.22 μm PVDF Stericup filter into a sterile collection vessel. • Conduct the following in a laminar flow hood; fill 10-mL sterile tubing vials with 10 mL of solution, stoppered with a sterile Flurotec stopper, and crimp-capped with a flip-off seal. • Place vials in 40° C./75% RH and 25° C./60% RH stability chambers. HPLC method in Example 3 to monitor purity and impurities.

O=P1(O)OP(=O)(O)[O][Pt]2([NH][C@@H]3CCCC[C@H]3[NH]2)[O]1 (stereo partly drawn) [(R,R)-pyrodach-2, (R,R)-trans-1,2-cyclohexanediamine-(dihydrogenpyrophosphato)platinum(II)]
Individual Related Substances RRT 0.28-0.29 (1 Month): 0.10% | Individual Related Substances RRT 0.50-0.51 (1 Month): 0.08% | Individual Related Substances RRT 0.58 (1 Month): 0.39% | Individual Related Substances RRT 0.73-0.74 (1 Month): 0.71% | Potency (Assay) (1 Month): 102.2% | Total Related Substances (1 Month): 1.3% | pH (1 Month): 7.6 | Individual Related Substances RRT 0.28-0.29 (2 Months): 0.20% | Individual Related Substances RRT 0.50-0.51 (2 Months): 0.15% | Individual Related Substances RRT 0.58 (2 Months): 0.38% | Individual Related Substances RRT 0.73-0.74 (2 Months): 0.92% | Potency (Assay) (2 Months): 103.8% | Total Related Substances (2 Months): 1.6% | pH (2 Months): 7.6 | Individual Related Substances RRT 0.28-0.29 (3 Months): 0.17% | Individual Related Substances RRT 0.50-0.51 (3 Months): 0.11% | Individual Related Substances RRT 0.58 (3 Months): 0.43% | Individual Related Substances RRT 0.73-0.74 (3 Months): 0.88% | Potency (Assay) (3 Months): 101.4% | Total Related Substances (3 Months): 1.6% | pH (3 Months): 7.6 | Individual Related Substances RRT 0.28-0.29 (6 Months): 0.17% | Individual Related Substances RRT 0.50-0.51 (6 Months): 0.12% | Individual Related Substances RRT 0.58 (6 Months): 0.44% | Individual Related Substances RRT 0.73-0.74 (6 Months): 0.81% | Potency (Assay) (6 Months): 102.8% | Total Related Substances (6 Months): 1.5% | pH (6 Months): 7.6 | Individual Related Substances RRT 0.28-0.29 (9 Months): 0.18% | Individual Related Substances RRT 0.50-0.51 (9 Months): 0.21% | Individual Related Substances RRT 0.58 (9 Months): 0.42% | Individual Related Substances RRT 0.73-0.74 (9 Months): 0.27% | Potency (Assay) (9 Months): 101.7% | Total Related Substances (9 Months): 1.20% | pH (9 Months): 7.6 | Individual Related Substances PT-112 Dimer (Initial): 0.16% | Individual Related Substances RRT 0.28-0.29 (Initial): 0.14% | Individual Related Substances RRT 0.50-0.51 (Initial): 0.08% | Individual Related Substances RRT 0.58 (Initial): 0.34% | Individual Related Substances RRT 0.73-0.74 (Initial): 0.83% | Individual Related Substances RRT 0.92 (Initial): 0.05% | Individual Related Substances RRT 1.57 (Initial): 0.12% | Potency (Assay) (Initial): 102.0% | Total Related Substances (Initial): 1.7% | pH (Initial): 7.5
